Broadly, the inhibition is the change of the read-out against control, counted positive when it falls.

Molecules are shown by their SMILES. Calls of active or inactive are those of the source. The rule behind the calls is not given here.

The assay relates to SARS coronavirus 3C-like protease (3CLpro). Briefly: SARS 3CLpro protease inhibitors, late-stage follow-up, biochemical, fluorescence, single concentration, set 5 (AID 602487). As to conditions: purified 3CLpro, fluorogenic substrate cleavage; at 100 µM; hits give high values.
Take `CC(C)C(=O)Nc1ccc(N(Cc2ccsc2)C(=O)Cn2cc([Si](C)(C)C)nn2)cc1`: the inhibition was 4.5% (inactive).
In the case of `CC(C)C(=O)Nc1ccc(N(Cc2ccsc2)C(=O)Cn2ccnn2)cc1` it was 26.1% (inactive); in that of `CC(=O)Nc1ccc(N(C(=O)Cn2ccnn2)C(C(=O)NC(C)(C)C)c2ccsc2)cc1` (stereo not given), 5.4% (inactive).
With `CC(C)C(=O)Nc1ccc(N(Cc2ccsc2)C(=O)Cn2cc(-c3ccccc3)nn2)cc1`, the inhibition was 3.7% (inactive).
`CC(=O)Nc1ccc(N(C(=O)Cn2cc([Si](C)(C)C)nn2)C(C(=O)NC(C)(C)C)c2ccsc2)cc1` (stereo not given): the inhibition was -3.9% (inactive).
